Experimental data from paper PMC6053381, “Novel 2-phenyloxypyrimidine derivative induces apoptosis and autophagy via inhibiting PI3K pathway and activating MAPK/ERK signaling in hepatocellular carcinoma cells” (Scientific Reports, 2018).
Where two headings read alike, the source gives them in different places.

Assays:
PDGFRα = PDGFRα (Homo sapiens, UniProt P16234); assay: PDGFR kinase assay, Caliper microfluidic mobility shift; assay type: biochemical; details: compound at 1 µM, averages of two separate experiments
Sequence of PDGFRα (P16234 24-1089): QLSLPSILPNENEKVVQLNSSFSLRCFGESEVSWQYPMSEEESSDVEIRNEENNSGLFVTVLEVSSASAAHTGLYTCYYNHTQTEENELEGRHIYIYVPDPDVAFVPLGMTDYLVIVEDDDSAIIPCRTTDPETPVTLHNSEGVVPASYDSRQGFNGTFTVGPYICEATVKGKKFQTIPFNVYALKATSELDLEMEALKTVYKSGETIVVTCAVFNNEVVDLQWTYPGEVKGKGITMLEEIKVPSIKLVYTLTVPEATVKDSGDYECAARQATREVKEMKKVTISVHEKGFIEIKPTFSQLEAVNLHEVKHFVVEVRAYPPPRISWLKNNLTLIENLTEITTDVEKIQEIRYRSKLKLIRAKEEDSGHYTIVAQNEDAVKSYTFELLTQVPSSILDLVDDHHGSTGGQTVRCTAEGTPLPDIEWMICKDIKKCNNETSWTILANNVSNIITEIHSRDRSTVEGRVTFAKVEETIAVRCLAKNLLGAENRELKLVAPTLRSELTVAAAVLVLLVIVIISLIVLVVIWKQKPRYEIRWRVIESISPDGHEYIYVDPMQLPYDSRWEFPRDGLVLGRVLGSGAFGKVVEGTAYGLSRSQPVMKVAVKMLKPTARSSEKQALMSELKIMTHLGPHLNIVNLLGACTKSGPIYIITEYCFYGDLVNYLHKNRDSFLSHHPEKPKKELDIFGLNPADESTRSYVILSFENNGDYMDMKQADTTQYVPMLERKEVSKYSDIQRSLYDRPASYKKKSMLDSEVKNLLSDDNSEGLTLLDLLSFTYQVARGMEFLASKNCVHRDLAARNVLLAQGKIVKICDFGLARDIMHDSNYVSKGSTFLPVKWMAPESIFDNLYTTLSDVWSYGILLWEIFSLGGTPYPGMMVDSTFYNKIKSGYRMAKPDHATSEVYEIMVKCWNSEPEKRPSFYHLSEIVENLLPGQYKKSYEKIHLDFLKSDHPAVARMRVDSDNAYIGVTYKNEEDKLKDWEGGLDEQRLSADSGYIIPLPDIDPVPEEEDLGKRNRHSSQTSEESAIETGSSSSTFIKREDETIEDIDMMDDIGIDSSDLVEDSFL
Description: (§1) In vitro inhibitory activities of all compounds at 1 μM against PDGFRα and PDGFRβ were evaluated using Caliper microfluidic mobility shift technology. […] At the same concentration, only E5 inhibited greater than 50% of PDGFRβ activity (Fig. 2B).
(§2) PDGFR kinase activity was measured using Caliper microfluidic mobility shift technology. Briefly, 2 μL compound solution (25 μM) in 25% DMSO per well were added into the 384 well microtiter plates. Then, 10 μL per well of enzyme solution (100 mM HEPES, 10 mM MgCl2, Brij35 (30%) 100 μL, 1 mM DTT, 20 ng enzyme) was added. After a brief centrifugation at 1,000 rpm, the kinase reactions were started by addition of 38 μL per well of peptide/ATP-solution (40 μM ATP, 6.5 μM peptide 5′-FAM-KKKKEEIYFFF-NH2, Tris-HCl buffer, pH 7.0) incubated at 30 °C for 60 min and stopped by the addition of 20 μL 35 mM EDTA per well. The electrophoretic separation of the phosphorylated and non-phosphorylated peptides was then carried out on LabChip EZ Reader II (Caliper Life Sciences). All other kinase reactions were carried out as previously reported using the Kinase-Glo Plus or ADP-Glo assay. Kinase inhibition rates were calculated per manufacturer’s instructions.

PDGFRβ = PDGFRβ (Homo sapiens, UniProt P09619); assay: as above; assay type: biochemical; details: compound at 1 µM, averages of two separate experiments
Sequence of PDGFRβ (P09619 33-1106): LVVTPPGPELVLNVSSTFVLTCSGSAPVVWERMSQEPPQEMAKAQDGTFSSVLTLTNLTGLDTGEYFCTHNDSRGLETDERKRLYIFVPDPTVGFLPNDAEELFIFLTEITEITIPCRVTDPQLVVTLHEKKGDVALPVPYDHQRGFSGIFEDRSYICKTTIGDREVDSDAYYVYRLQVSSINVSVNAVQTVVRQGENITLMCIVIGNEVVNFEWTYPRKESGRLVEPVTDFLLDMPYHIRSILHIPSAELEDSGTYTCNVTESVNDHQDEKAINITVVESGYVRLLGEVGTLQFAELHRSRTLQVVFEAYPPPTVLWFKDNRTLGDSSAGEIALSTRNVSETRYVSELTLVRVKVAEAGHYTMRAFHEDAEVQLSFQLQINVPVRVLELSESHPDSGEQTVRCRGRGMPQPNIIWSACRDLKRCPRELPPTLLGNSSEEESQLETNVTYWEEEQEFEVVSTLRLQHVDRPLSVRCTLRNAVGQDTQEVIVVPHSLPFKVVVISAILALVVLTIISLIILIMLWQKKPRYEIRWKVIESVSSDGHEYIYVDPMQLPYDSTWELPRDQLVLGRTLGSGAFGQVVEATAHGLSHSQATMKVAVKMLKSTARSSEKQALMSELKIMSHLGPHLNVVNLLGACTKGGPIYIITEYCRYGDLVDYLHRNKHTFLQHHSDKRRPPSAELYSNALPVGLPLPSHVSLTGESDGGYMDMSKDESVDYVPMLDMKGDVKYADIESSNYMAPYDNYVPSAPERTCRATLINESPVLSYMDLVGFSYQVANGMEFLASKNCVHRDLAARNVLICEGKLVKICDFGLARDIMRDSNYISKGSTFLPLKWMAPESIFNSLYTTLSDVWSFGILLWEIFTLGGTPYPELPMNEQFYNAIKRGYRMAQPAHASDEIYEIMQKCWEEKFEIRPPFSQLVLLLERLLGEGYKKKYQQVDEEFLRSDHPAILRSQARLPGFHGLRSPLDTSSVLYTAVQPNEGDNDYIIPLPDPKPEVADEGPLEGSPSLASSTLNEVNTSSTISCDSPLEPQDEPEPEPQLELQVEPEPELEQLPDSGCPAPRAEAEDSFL
Description: as §1, §2

BEL7404 = assay: CellTiter-Glo luminescent cell viability assay; assay type: cell-based; details: read-out: Anti-proliferative activity IC50 BEL7404
Excerpt: (§3) The in vitro antitumor activity of all compounds was screened against six HCC cell lines by CellTiter-Glo luminescent cell viability assay as described earlier. […] After a comprehensive assessment of PDGFR inhibition, cellular activity against HCC cells as well as potential druggability, E5 was chosen to investigate its kinase profiling, antitumor activity and molecular mechanism in the following study. […]
(§4) authenticated by using short tandem repeat (STR) matching analysis. No mycoplasma contamination was detected.
(§5) CellTiter-Glo luminescent cell viability assay
(§6) For experiments hepatocellular carcinoma cells were seeded at 4000 cells per well in 96-well plates. After overnight incubation, solution of compounds in DMSO at various concentrations were added to the cells and further incubated for 120 h. Cell viability was measured with the CellTiter-Glo Luminescent Cell Viability Assay (Promega) according to the manufacturer’s instructions. Luminescence was measured using an EnVision Multilabel Plate Reader (Perkin-Elmer). The cytotoxicity of the compounds was expressed as the percent age of luminescence relative to that of untreated cells . The concentration of compound producing 50% of cell proliferation (IC50) was calculated by nonlinear regression analysis of the response-concentration (log) curve, using the Graph-Pad Prism program package (Graph Pad Software; San Diego, CA). Results are expressed as the means of two […] experiments

Hep3B = assay: CellTiter-Glo luminescent cell viability assay; assay type: cell-based; details: 120 h incubation, read-out: Anti-proliferative activity IC50 Hep3B
Excerpt: as §3, §4, §5, §6

MHCC97-L = assay: CellTiter-Glo luminescent cell viability assay; assay type: cell-based; details: 120 h incubation, read-out: Anti-proliferative activity IC50 MHCC97-L
Excerpt: as §3, §4, §5, §6

QGY-7703 = assay: CellTiter-Glo luminescent cell viability assay; assay type: cell-based; details: read-out: Anti-proliferative activity IC50 QGY-7703
Excerpt: as §3, §4, §5, §6

SMMC-7721 = assay: CellTiter-Glo luminescent cell viability assay; assay type: cell-based; details: read-out: Anti-proliferative activity IC50 SMMC-7721
Excerpt: as §3, §4, §5, §6

SNU368 = assay: CellTiter-Glo luminescent cell viability assay; assay type: cell-based; details: 120 h incubation, read-out: Anti-proliferative activity IC50 SNU368
Excerpt: as §3, §4, §5, §6

Inhibition effect (%) PDGFRα (PDGFRα) [%] | Inhibition effect (%) PDGFRβ (PDGFRβ) [%] | IC50 (BEL7404; 120 h incubation) [µM] | IC50 (Hep3B) [µM] | IC50 (SMMC-7721; 120 h incubation) [µM] | IC50 (SNU368) [µM] | inhibition at 1 µM (PDGFRα; read-out: Inhibition effect (%) PDGFRα) [%] | inhibition at 1 µM (PDGFRβ; read-out: Inhibition effect (%) PDGFRβ) [%] | IC50 (BEL7404; Homo sapiens, BEL-7404, 120 h incubation) [µM] | IC50 (Hep3B; Homo sapiens, Hep3B) [µM] | IC50 (SMMC-7721; Homo sapiens, SMMC-7721, 120 h incubation) [µM] | Structure (SMILES) | IC50 (MHCC97-L) [µM] | IC50 (QGY-7703; 120 h incubation) [µM] | IC50 (MHCC97-L; MHCC97L) [µM] | IC50 (QGY-7703; Homo sapiens, QGY-7703, 120 h incubation) [µM]
13.74 | 28.93 | 48.7 | 11.4 | 1.5 | 37.3 | – | – | – | – | – | Cc1ccc(NC(=O)c2ccccc2)cc1Oc1nccc(-c2ccco2)n1 [D1] | 1.6 | 2.5 | – | –
42.91 | 6.84 | 74.2 | 105 | 79.7 | 94.6 | – | – | – | – | – | Cc1ccc(NC(=O)c2cccnc2)cc1Oc1nccc(-c2cccnc2)n1 [A11] | 89.3 | 252 | – | –
33.27 | 1.32 | 36.2 | 32 | 21 | 43 | – | – | – | – | – | CC(=O)Nc1ccc(C)c(Oc2nccc(-c3cccc4ccccc34)n2)c1 [C1] | 109 | 91.6 | – | –
21.09 | 17.63 | 14.4 | 13 | 11.7 | 24.8 | – | – | – | – | – | Cc1ccc(NC(=O)Cc2ccccc2)cc1Oc1nccc(-c2ccccc2)n1 [B2] | 16.9 | 20.6 | – | –
18.56 | 19.39 | 5.9 | 9 | 4.6 | 14.7 | – | – | – | – | – | Cc1ccc(NC(=O)CN2CCOCC2)cc1Oc1nccc(-c2cc3ccccc3o2)n1 [E7] | 59.1 | 10.3 | – | –
19.57 | 15.63 | 8.1 | 5.8 | 3.9 | 12.6 | – | – | – | – | – | Cc1ccc(NC(=O)c2ccc(F)cc2)cc1Oc1nccc(-c2ccccc2)n1 [B10] | 6.3 | 10.9 | – | –
31.49 | 16.63 | 18.3 | 15.5 | 17 | 14 | – | – | – | – | – | Cc1ccc(NC(=O)c2cccc(Cl)c2)cc1Oc1nccc(-c2ccccc2)n1 [B7] | > 200 | 25.8 | – | –
51.79 | 43.49 | 12.4 | 11.2 | 12.4 | 24 | – | – | – | – | – | Cc1ccc(NC(=O)c2cccc(Cl)c2)cc1Oc1nccc(-c2ccco2)n1 [D5] | 14.7 | 22.5 | – | –
23.63 | 23.41 | 23.8 | 28.4 | 26.8 | 51.5 | – | – | – | – | – | Cc1ccc(NC(=O)c2cccc([N+](=O)[O-])c2)cc1Oc1nccc(-c2cccnc2)n1 [A9] | 53.2 | 48.4 | – | –
24.14 | -0.94 | 6.7 | 19.7 | 14.3 | 17.2 | – | – | – | – | – | Cc1ccc(NC(=O)c2ccc(Cl)cc2)cc1Oc1nccc(-c2cccc3ccccc23)n1 [C6] | > 200 | 19.2 | – | –
21.34 | 19.14 | 12.9 | 83.2 | 13.8 | 16.8 | – | – | – | – | – | Cc1ccc(NC(=O)c2cccc([N+](=O)[O-])c2)cc1Oc1nccc(-c2ccccc2)n1 [B9] | > 200 | 19.2 | – | –
2.32 | 12.87 | 10.5 | 2.7 | 2.7 | 17.7 | – | – | – | – | – | Cc1ccc(NC(=O)c2ccccc2)cc1Oc1nccc(-c2ccccc2)n1 [B1] | 4.9 | 5.8 | – | –
16.27 | 5.08 | 20.8 | 17 | 16.8 | 28.4 | – | – | – | – | – | Cc1ccc(NC(=O)c2cccs2)cc1Oc1nccc(-c2cccc3ccccc23)n1 [C5] | 28 | 35.2 | – | –
45.45 | 45.50 | 32.8 | 21.2 | 25.1 | 51.4 | – | – | – | – | – | Cc1ccc(C(=O)Nc2ccc(C)c(Oc3nccc(-c4cccnc4)n3)c2)cc1 [A3] | 22.3 | 47 | – | –
1.81 | 19.39 | 7.9 | 9.2 | 8.4 | 15.8 | – | – | – | – | – | COc1ccc(C(=O)Nc2ccc(C)c(Oc3nccc(-c4ccccc4)n3)c2)cc1 [B5] | 9.8 | 14.9 | – | –
13.73 | 2.83 | 8.8 | 22.9 | 12 | 15.8 | – | – | – | – | – | Cc1ccc(NC(=O)c2ccoc2)cc1Oc1nccc(-c2cccc3ccccc23)n1 [C4] | 96.4 | 14.9 | – | –
36.82 | 46.75 | 32.8 | 28.3 | 21.6 | 43.8 | – | – | – | – | – | Cc1ccc(NC(=O)Cc2ccccc2)cc1Oc1nccc(-c2ccco2)n1 [D2] | 26.4 | 42.2 | – | –
22.61 | 37.72 | 17.6 | 9.7 | 7.9 | 22.2 | – | – | – | – | – | COc1ccc(C(=O)Nc2ccc(C)c(Oc3nccc(-c4ccco4)n3)c2)cc1 [D3] | 8.5 | 15.7 | – | –
35.04 | 24.42 | 9.5 | 6.4 | 6.2 | 12.9 | – | – | – | – | – | Cc1cccc(C(=O)Nc2ccc(C)c(Oc3nccc(-c4ccccc4)n3)c2)c1 [B4] | 7 | 10.2 | – | –
– | – | – | – | – | 85.7 | 39.1 | 21.4 | 10.8 | 15.8 | 13.6 | Cc1ccc(N)cc1Oc1nccc(-c2cccnc2)n1 [A1] | – | – | 15.1 | 24.5
46.46 | 11.61 | 39.7 | 33.5 | 27.2 | 37.9 | – | – | – | – | – | Cc1ccc(NC(=O)c2ccco2)cc1Oc1nccc(-c2cccc3ccccc23)n1 [C3] | 91 | 70.7 | – | –
12.21 | 18.64 | 13.4 | 7.9 | 9.7 | 15 | – | – | – | – | – | Cc1ccc(NC(=O)c2ccc(Cl)cc2)cc1Oc1nccc(-c2ccccc2)n1 [B6] | 10.5 | 15.4 | – | –
